From patent publication EP1247803A2, “Indolinone compounds suitable for modulation of protein kinases” (Sugen, Inc., priority 1996, dated 1998)

Target: T1, FLK-1 receptor (Mus musculus, UniProt P35918)
T1 construct: expressed in transfected cells; host or cells: NIH3T3 C7#3
Test: FLK-1 ELISA (kinase activity of the FLK-1 receptor in FLK-1/NIH3T3 cells, VEGF stimulated)
Format: cell-based
How it was run: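 FLK-1-expressing NIH3T3 C7#3 cells, starved overnight in 0.1% FBS medium, were treated with compounds at a 1:200 final dilution (0.5% DMSO) for 2 h at 37 °C, with VEGF stimulation. FLK-1 kinase activity was read by ELISA on anti-rabbit IgG plates using affinity-purified anti-FLK-1 antiserum.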

T1 sequence (P35918 20-1345): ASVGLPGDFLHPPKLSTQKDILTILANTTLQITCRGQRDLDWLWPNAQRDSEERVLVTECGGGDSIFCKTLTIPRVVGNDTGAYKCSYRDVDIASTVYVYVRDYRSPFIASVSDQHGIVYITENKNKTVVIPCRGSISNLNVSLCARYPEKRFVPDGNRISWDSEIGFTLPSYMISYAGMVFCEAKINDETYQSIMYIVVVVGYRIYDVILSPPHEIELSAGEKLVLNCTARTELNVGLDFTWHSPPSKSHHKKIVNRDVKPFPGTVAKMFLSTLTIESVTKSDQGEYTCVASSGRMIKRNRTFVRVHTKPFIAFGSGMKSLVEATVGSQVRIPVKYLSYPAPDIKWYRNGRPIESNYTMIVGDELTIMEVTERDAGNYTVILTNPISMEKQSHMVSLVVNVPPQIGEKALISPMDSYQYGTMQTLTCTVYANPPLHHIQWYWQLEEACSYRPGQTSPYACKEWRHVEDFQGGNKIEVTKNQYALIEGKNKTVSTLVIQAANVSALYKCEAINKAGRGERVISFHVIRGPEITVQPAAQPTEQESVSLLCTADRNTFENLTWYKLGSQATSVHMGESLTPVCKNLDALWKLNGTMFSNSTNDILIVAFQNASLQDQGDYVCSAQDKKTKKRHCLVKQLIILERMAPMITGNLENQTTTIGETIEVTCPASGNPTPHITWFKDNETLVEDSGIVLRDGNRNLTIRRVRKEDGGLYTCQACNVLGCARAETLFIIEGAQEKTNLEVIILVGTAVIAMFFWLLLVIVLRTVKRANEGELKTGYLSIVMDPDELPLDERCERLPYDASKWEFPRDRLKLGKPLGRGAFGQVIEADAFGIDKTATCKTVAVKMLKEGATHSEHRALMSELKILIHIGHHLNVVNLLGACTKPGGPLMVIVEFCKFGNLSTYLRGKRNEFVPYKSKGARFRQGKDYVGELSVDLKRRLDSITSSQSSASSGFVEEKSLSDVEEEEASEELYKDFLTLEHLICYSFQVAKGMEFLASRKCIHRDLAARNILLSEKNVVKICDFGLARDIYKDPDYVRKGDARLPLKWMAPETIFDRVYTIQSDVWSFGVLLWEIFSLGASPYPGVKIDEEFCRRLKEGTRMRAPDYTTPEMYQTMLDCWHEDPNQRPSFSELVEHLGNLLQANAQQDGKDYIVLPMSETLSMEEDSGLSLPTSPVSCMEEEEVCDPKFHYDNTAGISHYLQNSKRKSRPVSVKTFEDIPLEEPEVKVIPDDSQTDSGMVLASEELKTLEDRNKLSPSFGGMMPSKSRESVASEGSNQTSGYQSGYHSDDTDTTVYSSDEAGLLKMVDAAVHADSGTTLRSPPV

Row | Structure (SMILES) | Fik Kinase %Inhibition [%]
1 | O=C1Nc2c(Br)cc(Br)cc2C1=Cc1ccc(Cl)s1 [10721/A07] | -4.7
2 | CNS(=O)(=O)c1ccc2c(c1)C(=Cc1ccc(SC)s1)C(=O)N2 [10720/D07] | 11.8
3 | Cc1c(Br)ccc2c1C(=Cc1nn(C)cc1Cl)C(=O)N2 [10721/C03] | 16.5
4 | COc1cc(O)ccc1C=C1C(=O)Nc2ccc(S(=O)(=O)Nc3ccc(C(F)(F)F)cc3)cc21 [10720/E03] | 34.3
5 | O=C1Nc2ccc(S(=O)(=O)N3CCOCC3)cc2C1=Cc1ccccc1 [10720/F06] | 11.9
6 | Cc1cc(C)c(C=C2C(=O)Nc3c(Br)cc(Br)cc32)[nH]1 [10721/A08] | 4.8
7 | CC(C)(C)c1cc(C=C2C(=O)Nc3ccc(I)cc32)cc(Br)c1O [10721/B10] | 20.9
8 | CC(C)(C)c1cc(C=C2C(=O)Nc3ccc(I)cc32)cc(C(C)(C)C)c1O [10721/B11] | -2.1
9 | Cc1cc(C)c(C=C2C(=O)Nc3ccc(Br)c(C)c32)[nH]1 [10721/C08] | 55.8
10 | Cc1c(Br)ccc2c1C(=Cc1cc3c([nH]1)CCCC3)C(=O)N2 [10721/C05] | 56.4
11 | CNS(=O)(=O)c1ccc2c(c1)C(=Cc1nn(C)cc1Cl)C(=O)N2 [10721/D03] | 17.8
12 | CCOc1cc(C=C2C(=O)Nc3ccc(S(=O)(=O)N4CCOCC4)cc32)ccc1O [10720/F09] | 5.9
13 | COc1cc(O)ccc1C=C1C(=O)Nc2ccc(S(=O)(=O)N3CCOCC3)cc21 [10720/F03] | 10.6
14 | COc1ccc(O)c(C=C2C(=O)Nc3ccc(S(=O)(=O)Nc4ccc(C(F)(F)F)cc4)cc32)c1 [10720/E10] | -4.1
15 | CNS(=O)(=O)c1ccc2c(c1)C(=Cc1cc3c([nH]1)CCCC3)C(=O)N2 [10721/D05] | -25.1
16 | Cn1c(C=C2C(=O)Nc3c(Br)cc(Br)cc32)nc2ccccc21 [10721/A02] | 10.6
17 | CNS(=O)(=O)c1ccc2c(c1)C(=Cc1ccccc1O)C(=O)N2 [10720/D05] | 4.8
18 | CC(C)(C)c1cc(C=C2C(=O)Nc3c(Br)cc(Br)cc32)cc(C(C)(C)C)c1O [10721/A11] | 4.8
19 | CCOc1cc(C=C2C(=O)Nc3ccc(S(=O)(=O)Nc4ccc(C(F)(F)F)cc4)cc32)ccc1O [10720/E09] | 11.5
20 | O=C1Nc2ccc(S(=O)(=O)N3CCOCC3)cc2C1=Cc1ccccc1O [10720/F05] | -3.6
21 | Cn1cc(Cl)c(C=C2C(=O)Nc3c(Br)cc(Br)cc32)n1 [10721/A03] | 11.4
22 | Cc1c(Br)ccc2c1C(=Cc1ccc[nH]1)C(=O)N2 [10717/C09] | 77.1
23 | CSc1ccc(C=C2C(=O)Nc3ccc(S(=O)(=O)N4CCOCC4)cc32)s1 [10720/F07] | 4.6
24 | COc1ccc(C=C2C(=O)Nc3ccc(S(=O)(=O)Nc4ccc(C(F)(F)F)cc4)cc32)cc1OC [10720/E04] | 18.4
25 | COc1ccc(O)c(C=C2C(=O)Nc3ccc(CCCl)cc32)c1 [10720/G10] | -36.6
26 | CNS(=O)(=O)c1ccc2c(c1)C(=Cc1ccc(O)c(C(C)(C)C)c1)C(=O)N2 [10721/D09] | 17.6
27 | O=C1Nc2c(Br)cc(Br)cc2C1=Cc1cc([N+](=O)[O-])cc(CCl)c1O [10721/A06] | 6.4

Row | Structure (SMILES) | Fik Kinase %Inhibition [%]
28 | Cc1c(Br)ccc2c1C(=Cc1ccc(Cl)s1)C(=O)N2 [10721/C07] | 10.9
29 | CNS(=O)(=O)c1ccc2c(c1)C(=Cc1cc(OC)ccc1O)C(=O)N2 [10720/D10] | -6.6
30 | Cc1cc(O)cc(O)c1C=C1C(=O)Nc2ccc(CCCl)cc21 [10720/G08] | -17.9
31 | O=C1Nc2ccc(S(=O)(=O)Nc3ccc(C(F)(F)F)cc3)cc2C1=Cc1ccccc1 [10720/E06] | 25.5
32 | Cc1c(Br)ccc2c1C(=Cc1ccc(Br)cc1)C(=O)N2 [10717/C08] | 7.0
33 | CCOc1cc(C=C2C(=O)Nc3ccc(S(=O)(=O)NC)cc32)ccc1O [10720/D09] | 5.8
34 | Cc1cc(C=C2C(=O)Nc3c(Br)cc(Br)cc32)sc1C [10721/A04] | 6.5
35 | CNS(=O)(=O)c1ccc2c(c1)C(=Cc1ccc(OC)c(OC)c1)C(=O)N2 [10720/D04] | 15.6
36 | CNS(=O)(=O)c1ccc2c(c1)C(=Cc1ncc[nH]1)C(=O)N2 [10720/D11] | 9.8
37 | Cc1c(Br)ccc2c1C(=Cc1ccc(F)cc1)C(=O)N2 [10717/C05] | -2.3
38 | Cc1cc(O)cc(O)c1C=C1C(=O)Nc2ccc(S(=O)(=O)N3CCOCC3)cc21 [10720/F08] | -4.1
39 | CC(C)(C)c1cc(C=C2C(=O)Nc3c(Br)cc(Br)cc32)cc(Br)c1O [10721/A10] | 5.2
40 | CC(C)(C)c1cc(C=C2C(=O)Nc3ccc(I)cc32)ccc1O [10721/B09] | 9.0
41 | Cc1c(Br)ccc2c1C(=Cc1cc([N+](=O)[O-])cc(CCl)c1O)C(=O)N2 [10721/C06] | 14.4
42 | CCOc1ccccc1C=C1C(=O)Nc2c(Br)cc(Br)cc21 [10717/A02] | 0.1
43 | O=C1Nc2ccc(CCCl)cc2C1=Cc1ccccc1O [10720/G05] | -2.9
44 | Cc1c(Br)ccc2c1C(=Cc1cc(C(C)(C)C)c(O)c(C(C)(C)C)c1)C(=O)N2 [10721/C11] | 13.9
45 | COc1ccc(O)c(C=C2C(=O)Nc3ccc(S(=O)(=O)N4CCOCC4)cc32)c1 [10720/F10] | -2.6
46 | CNS(=O)(=O)c1ccc2c(c1)C(=Cc1nc3ccccc3n1C)C(=O)N2 [10721/D02] | 15.1
47 | CNS(=O)(=O)c1ccc2c(c1)C(=Cc1ccccc1)C(=O)N2 [10720/D06] | 10.1
48 | CSc1ccc(C=C2C(=O)Nc3ccc(S(=O)(=O)Nc4ccc(C(F)(F)F)cc4)cc32)s1 [10720/E07] | 18.8
49 | COc1ccc(C=C2C(=O)Nc3ccc(S(=O)(=O)N4CCOCC4)cc32)cc1OC [10720/F04] | 10.6
50 | O=C1Nc2ccc(S(=O)(=O)N3CCOCC3)cc2C1=Cc1c(F)cc(F)cc1F [10720/F02] | 9.1
51 | CC(C)(C)c1cc(C=C2C(=O)Nc3c(Br)cc(Br)cc32)ccc1O [10721/A09] | 10.9
52 | Cc1cc(C)c(C=C2C(=O)Nc3ccc(I)cc32)[nH]1 [10721/B08] | 18.5
53 | O=C1Nc2ccc(CCCl)cc2C1=Cc1ccccc1 [10720/G06] | -3.4
54 | COc1ccc(C=C2C(=O)Nc3ccc(CCCl)cc32)cc1OC [10720/G04] | 2.4

Row | Structure (SMILES) | Fik Kinase %Inhibition [%]
55 | Cc1c(Br)ccc2c1C(=Cc1cc(Br)c(O)c(C(C)(C)C)c1)C(=O)N2 [10721/C10] | 21.1
56 | Cc1cc(O)cc(O)c1C=C1C(=O)Nc2ccc(S(=O)(=O)Nc3ccc(C(F)(F)F)cc3)cc21 [10720/E08] | 2.5
57 | Cc1c(Br)ccc2c1C(=Cc1ccc(O)c(C(C)(C)C)c1)C(=O)N2 [10721/C09] | 17.5
58 | Cc1c(Br)ccc2c1C(=Cc1cccn1C)C(=O)N2 [10717/C04] | -0.8
59 | COc1cc(O)ccc1C=C1C(=O)Nc2ccc(CCCl)cc21 [10720/G03] | 2.6
60 | O=C1Nc2ccc(I)cc2C1=Cc1cc2c([nH]1)CCCC2 [10721/B05] | 45.9
61 | Cc1c(Br)ccc2c1C(=Cc1c[nH]c3ccccc13)C(=O)N2 [10717/C06] | 7.6
62 | CCOc1cc(C=C2C(=O)Nc3ccc(CCCl)cc32)ccc1O [10720/G09] | 2.1
63 | O=C1Nc2ccc(S(=O)(=O)Nc3ccc(C(F)(F)F)cc3)cc2C1=Cc1ncc[nH]1 [10720/E11] | 9.3
64 | O=C1Nc2ccc(S(=O)(=O)N3CCOCC3)cc2C1=Cc1ncc[nH]1 [10720/F11] | 5.0
65 | Cc1c(Br)ccc2c1C(=Cc1nc3ccccc3n1C)C(=O)N2 [10721/C02] | 9.7
66 | O=C1Nc2c(Br)cc(Br)cc2C1=Cc1cc2c([nH]1)CCCC2 [10721/A05] | 12.5
67 | CNS(=O)(=O)c1ccc2c(c1)C(=Cc1cc([N+](=O)[O-])cc(CCl)c1O)C(=O)N2 [10721/D06] | 1.6
68 | CNS(=O)(=O)c1ccc2c(c1)C(=Cc1ccc(Cl)s1)C(=O)N2 [10721/D07] | 6.4
69 | COc1cccc(O)c1C=C1C(=O)Nc2ccc(Br)c(C)c21 [10717/C10] | -8.0
70 | CSc1ccc(C=C2C(=O)Nc3ccc(CCCl)cc32)s1 [10720/G07] | 5.1
71 | CNS(=O)(=O)c1ccc2c(c1)C(=Cc1c(C)cc(O)cc1O)C(=O)N2 [10720/D08] | 3.3
72 | O=C1Nc2ccc(S(=O)(=O)Nc3ccc(C(F)(F)F)cc3)cc2C1=Cc1ccccc1O [10720/E05] | -13.8
73 | O=C1Nc2ccc(CCCl)cc2C1=Cc1c(F)cc(F)cc1F [10720/G02] | 5.0
74 | Cc1cc(C=C2C(=O)Nc3ccc(Br)c(C)c32)sc1C [10721/C04] | 21.8
75 | O=C1Nc2ccc(S(=O)(=O)Nc3ccc(C(F)(F)F)cc3)cc2C1=Cc1c(F)cc(F)cc1F [10720/E02] | 5.7
76 | O=C1Nc2ccc(CCCl)cc2C1=Cc1ncc[nH]1 [10720/G11] | -18.0
77 | Cc1[nH]c(C=C2C(=O)Nc3ccc(Br)c(C)c32)c(Br)c1Br [10717/C11] | 4.6
78 | CNS(=O)(=O)c1ccc2c(c1)C(=Cc1[nH]c(C)cc1C)C(=O)N2 [10721/D08] | 3.9
79 | CNS(=O)(=O)c1ccc2c(c1)C(=Cc1cc(C)c(C)s1)C(=O)N2 [10721/D04] | 15.2
80 | Cc1ccc(C=C2C(=O)Nc3ccc(Br)c(C)c32)s1 [10717/C07] | 1.6
